Like-named read-outs stand apart in the source and are kept apart here.
What was measured:
SIRT1 [1] = biological target: T1, SIRT1 (Homo sapiens, UniProt Q96EB6); settings: Sirt1, Nicotinamide release, read-out: NAD Km, cited from earlier work
T1 sequence (Q96EB6 1-747): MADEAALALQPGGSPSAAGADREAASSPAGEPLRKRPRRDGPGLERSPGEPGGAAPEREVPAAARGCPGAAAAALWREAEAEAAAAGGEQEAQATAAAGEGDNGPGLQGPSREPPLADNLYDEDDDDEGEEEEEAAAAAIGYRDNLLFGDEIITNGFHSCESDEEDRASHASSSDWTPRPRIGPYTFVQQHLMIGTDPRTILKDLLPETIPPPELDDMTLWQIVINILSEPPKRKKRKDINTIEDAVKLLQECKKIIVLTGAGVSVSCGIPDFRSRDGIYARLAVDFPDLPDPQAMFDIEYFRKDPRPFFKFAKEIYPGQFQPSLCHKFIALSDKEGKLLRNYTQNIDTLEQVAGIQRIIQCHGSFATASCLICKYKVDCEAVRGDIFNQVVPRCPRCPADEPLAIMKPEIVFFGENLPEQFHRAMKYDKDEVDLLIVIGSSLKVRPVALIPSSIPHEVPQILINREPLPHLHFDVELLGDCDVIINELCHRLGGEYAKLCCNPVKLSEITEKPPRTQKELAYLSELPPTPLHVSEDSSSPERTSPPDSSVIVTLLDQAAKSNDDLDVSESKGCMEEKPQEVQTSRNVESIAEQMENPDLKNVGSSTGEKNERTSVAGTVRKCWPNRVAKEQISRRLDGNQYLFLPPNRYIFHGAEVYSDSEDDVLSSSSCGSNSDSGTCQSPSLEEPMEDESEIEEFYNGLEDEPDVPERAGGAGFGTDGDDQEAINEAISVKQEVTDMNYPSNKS

SIRT1 [2] = biological target: T1, SIRT1; settings: Sirt1, Fluorescent; peptide p53 (aa 379-382) *FL; read-out: NAD Km; cited from earlier work
SIRT1 [3] = biological target: T1, SIRT1; settings: Sirt1, FRET; peptide p53 20 mer (aa 372-387) *FL; read-out: NAD Km; cited from earlier work
Sirt2 [4] = biological target: T2, Sirt2 (Homo sapiens, UniProt Q8IXJ6); settings: Sirt2, Fluorescent; peptide p53 (aa 317-320) *FL; read-out: NAD Km; cited from earlier work
T2 sequence (Q8IXJ6 1-389): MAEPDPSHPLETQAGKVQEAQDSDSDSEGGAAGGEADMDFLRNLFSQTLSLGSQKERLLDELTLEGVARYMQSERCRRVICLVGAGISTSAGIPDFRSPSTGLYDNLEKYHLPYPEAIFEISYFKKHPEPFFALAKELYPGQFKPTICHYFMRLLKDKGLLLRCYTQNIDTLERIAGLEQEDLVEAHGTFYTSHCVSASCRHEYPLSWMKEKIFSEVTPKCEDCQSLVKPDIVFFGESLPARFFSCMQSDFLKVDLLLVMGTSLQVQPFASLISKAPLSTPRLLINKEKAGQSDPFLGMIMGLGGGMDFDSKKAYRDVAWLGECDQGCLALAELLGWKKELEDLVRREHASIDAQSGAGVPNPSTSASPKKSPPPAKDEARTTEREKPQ

Sirt3 = biological target: T3, Sirt3 (Homo sapiens, UniProt Q9NTG7); settings: Sirt3, Fluorescent; peptide p53 (aa 317-320) *FL; read-out: NAD Km; cited from earlier work
T3 sequence (Q9NTG7 1-399): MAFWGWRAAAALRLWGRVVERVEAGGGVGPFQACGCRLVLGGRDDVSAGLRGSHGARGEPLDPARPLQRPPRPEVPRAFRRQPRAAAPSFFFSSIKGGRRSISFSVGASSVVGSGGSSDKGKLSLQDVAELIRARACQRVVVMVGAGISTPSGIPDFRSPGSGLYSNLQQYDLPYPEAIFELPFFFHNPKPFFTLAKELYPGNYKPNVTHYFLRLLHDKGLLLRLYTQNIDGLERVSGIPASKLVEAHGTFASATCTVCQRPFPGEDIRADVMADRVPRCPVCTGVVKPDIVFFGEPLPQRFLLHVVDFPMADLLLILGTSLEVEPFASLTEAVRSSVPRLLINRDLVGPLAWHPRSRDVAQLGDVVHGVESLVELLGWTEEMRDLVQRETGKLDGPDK

Sirt2 [5] = biological target: T2, Sirt2; settings: Sirt2, FRET; peptide p53 20 mer (aa 372-387) *FL; read-out: NAD Km; cited from earlier work
SIRT1 [6] = biological target: T1, SIRT1; test: SIRT1 Km for NAD+ (mass spectrometry); type: biochemical; settings: 50 μM Acetylated Peptide Substrate, 1% DMSO
SIRT1 [7] = biological target: T1, SIRT1; settings: Sirt1, Nicotinamide release; peptide p53 19 mer (aa 368-386) no FL; read-out: NAD Km; cited from earlier work

SMILES: NC(=O)c1ccc[n+]([C@@H]2O[C@H](COP(=O)([O-])OP(=O)(O)OC[C@H]3O[C@@H](n4cnc5c(N)ncnc54)[C@H](O)[C@@H]3O)[C@@H](O)[C@H]2O)c1 [NAD^+]
- Km (SIRT1 [1]; peptide p53 (aa 368-386) *FL): 192 µM
- Km (SIRT1 [1]; peptide p53 (aa 368-386) no FL): 132 µM
- Km (SIRT1 [2]): 558 µM
- Km (SIRT1 [3]): 90 µM
- Km (Sirt2 [4]): 547 µM
- Km (Sirt3): 2.03 mM
- Km (Sirt2 [5]): 42 µM
- Km (SIRT1 [6]): 220 µM
- Km (SIRT1 [7]): 133 µM

Source: patent US8304206B2, “Mass spectrometry assays for identifying compounds that activate deacetylases” (Sirtris Pharmaceuticals, Inc., priority 2005, dated 2012)
